# Results taken from PMC7955127, “Preclinical small molecule WEHI-7326 overcomes drug resistance and elicits response in patient-derived xenograft models of human treatment-refractory tumors” (Cell Death & Disease, 2021).
# Assay: Acute toxicity study, single intravenous dose (non-GLP)
# Assay type: in vivo, Sprague-Dawley rats
# Conditions: female rats; for Lung - focal red areas medial right lobe (2 mm diameter) (incidence at necropsy) / Lung - haemorrhagic area right caudal lobe (1mm diameter) (incidence at necropsy) / Multifocal red petechiae on all lung lobes (incidence at necropsy) / Pale yellow liver (minimal) (incidence at necropsy) / ALP / ALT / APTT / AST / Albumin / Albumin/Globulin / Bilirubin (Total) / Calcium / Chloride / Cholesterol / Creatinine / Globulin / Glucose / HCT / HGB / MCH / MCHC / MCV / PLT / PT / Phosphate / Potassium / Protein (Total) / RBC / Retc. / Sodium / Triglycerides / Urea / WBC: day 15; for ALP / ALT / APTT / AST / Albumin / Albumin/Globulin / Bilirubin (Total) / Calcium / Chloride / Cholesterol / Creatinine / Globulin / Glucose / HCT / HGB / MCH / MCHC / MCV / PLT / PT / Phosphate / Potassium / Protein (Total) / RBC / Retc. / Sodium / Triglycerides / Urea / WBC: mean ± SD
# Method: This acute toxicity study included a satellite group for toxicokinetic assessment. The toxicity study was comprised of 12 male and 12 female rats, which were allocated into four groups of three males and three females. The toxicity of the test substance, WEHI-7326 dihydrochloride (referred to as WEHI-7326 from here), was tested at three dose concentrations of 5 mg/kg, 15 mg/kg and 30 mg/kg administered as a single dose via intravenous tail vein injection. The vehicle control, D-(+)-Glucose, was formulated at 5% w/v and administered per the above regime. On Study Day 15, all animals were terminated with blood collected for biochemistry, haematology and coagulation analysis before undergoing gross necropsy by a US board certified veterinary pathologist. The toxicokinetic satellite group comprised of 30 male rats which were allocated into four groups of three males in the vehicle control group and nine males in each of the three treatment groups. All treatment group animals were then allocated into three subgroups (A, B and C) and bled pre-dose, then 2min, 10min, 0.5h, 2h, 6h, 12h and 24h post-dose. All vehicle control group animals weren’t allocated to a specific subgroup but were bled at 10min and 12h post-dose. All TK animals were then terminated after the final blood collection. Dosing was suspended on Study Day 1 for both the Toxicity and Toxicokinetic Study animals following adverse reactions which lead to the early termination of two animals (one male treated with mid-dose WEHI-7326 from the Toxicity Study and one male treated with high-dose WEHI-7326 from the Toxicokinetic Study) approximately 5-10 minutes post-treatment. After consultation with the Sponsor, the following changes were made to the Study Design:
# At the revised high dose of 20mg/kg, all male rats had to be terminated prematurely also due to reaching their body weight loss endpoint of >10% loss. […] Significant findings in clinical pathology outcomes were considered incidental and unrelated to test article treatment. The majority of macroscopic findings at necropsy were also considered to be incidental, however the findings of white streaks through the testes of male animals treated with WEHI-7326 may be related to treatment. Body weights were measured once prior to dose administration, then daily for the duration of the study and at termination. Clinical observations were performed on a daily basis.
# The study followed test guideline OECD No. 420 (2001) “Acute Oral Toxicity - Fixed Dose Procedure” with the exception that the route of administration was intravenous (i.v.).
compound,measurement,setting,value
COc1ccc(CNc2nc(NCc3ccc(CN)cc3)nc(NN3CC(=O)NC3=O)n2)cc1 [WEHI-7326],Body weight loss >10% (termination required) (incidence),5 mg/kg single i.v.,0/3
same,Mild fur loss around both eyes from Study Day 10 to 15 (incidence),5 mg/kg single i.v.,0/3
same,Mild impairment of gait and lack of response to stimuli up to 10 minutes post-dose (incidence),5 mg/kg single i.v.,0/3
same,No remarkable observations (incidence),5 mg/kg single i.v.,3/3
same,Lung - focal red areas medial right lobe (2 mm diameter) (incidence at necropsy),5 mg/kg single i.v.,0/3
same,Lung - haemorrhagic area right caudal lobe (1mm diameter) (incidence at necropsy),5 mg/kg single i.v.,0/3
same,Multifocal red petechiae on all lung lobes (incidence at necropsy),5 mg/kg single i.v.,1/3
same,Pale yellow liver (minimal) (incidence at necropsy),5 mg/kg single i.v.,1/3
same,ALP,5 mg/kg single i.v.,286 ± 65 U/L
same,ALT,5 mg/kg single i.v.,54 ± 11 U/L
same,APTT,5 mg/kg single i.v.,17.2 ± 1.9 s
same,AST,5 mg/kg single i.v.,93 ± 13 U/L
same,Albumin,5 mg/kg single i.v.,37.3 ± 3.1 g/L
same,Albumin/Globulin,5 mg/kg single i.v.,1.6 ± 0.4 Ratio
same,Bilirubin (Total),5 mg/kg single i.v.,0.8 ± 0.1 µM
same,Calcium,5 mg/kg single i.v.,2.59 ± 0.07 mM
same,Chloride,5 mg/kg single i.v.,102.4 ± 0.5 mM
same,Cholesterol,5 mg/kg single i.v.,1.98 ± 0.21 mM
same,Creatinine,5 mg/kg single i.v.,30 ± 3 µM
same,Globulin,5 mg/kg single i.v.,23.7 ± 3.4 g/L
same,Glucose,5 mg/kg single i.v.,7.57 ± 0.07 mM
same,HCT,5 mg/kg single i.v.,0.45 ± 0.01 L/L
same,HGB,5 mg/kg single i.v.,137.3 ± 4.9 g/L
same,MCH,5 mg/kg single i.v.,18.87 ± 0.45 pg
same,MCHC,5 mg/kg single i.v.,303.0 ± 4.4 g/L
same,MCV,5 mg/kg single i.v.,62.3 ± 0.9 fL
same,PLT,5 mg/kg single i.v.,1080.0 ± 206.7 10^9/L
same,PT,5 mg/kg single i.v.,21.9 ± 1.0 s
same,Phosphate,5 mg/kg single i.v.,1.75 ± 0.14 mM
same,Potassium,5 mg/kg single i.v.,5.30 ± 0.14 mM
same,Protein (Total),5 mg/kg single i.v.,61.0 ± 0.4 g/L
same,RBC,5 mg/kg single i.v.,7.27 ± 0.14 10^12/L
same,Retc.,5 mg/kg single i.v.,3.76 ± 0.62%
same,Sodium,5 mg/kg single i.v.,138 ± 1 mM
same,Triglycerides,5 mg/kg single i.v.,0.86 ± 0.29 mM
same,Urea,5 mg/kg single i.v.,6.56 ± 1.18 mM
same,WBC,5 mg/kg single i.v.,11.28 ± 4.18 10^9/L
same,Body weight loss >10% (termination required) (incidence),15 mg/kg single i.v.,2/3
same,Mild fur loss around both eyes from Study Day 10 to 15 (incidence),15 mg/kg single i.v.,0/3
same,Mild impairment of gait and lack of response to stimuli up to 10 minutes post-dose (incidence),15 mg/kg single i.v.,0/3
same,No remarkable observations (incidence),15 mg/kg single i.v.,1/3
same,Lung - focal red areas medial right lobe (2 mm diameter) (incidence at necropsy),15 mg/kg single i.v.,0/1
same,Lung - haemorrhagic area right caudal lobe (1mm diameter) (incidence at necropsy),15 mg/kg single i.v.,0/1
same,Multifocal red petechiae on all lung lobes (incidence at necropsy),15 mg/kg single i.v.,0/1
same,Pale yellow liver (minimal) (incidence at necropsy),15 mg/kg single i.v.,0/1
same,ALP,15 mg/kg single i.v.,218 ± 0 U/L
same,ALT,15 mg/kg single i.v.,55 ± 0 U/L
same,APTT,15 mg/kg single i.v.,18.6 ± 0.0 s
same,AST,15 mg/kg single i.v.,73 ± 0 U/L
same,Albumin,15 mg/kg single i.v.,37.7 ± 0 g/L
same,Albumin/Globulin,15 mg/kg single i.v.,1.3 ± 0 Ratio
same,Bilirubin (Total),15 mg/kg single i.v.,1.0 ± 0 µM
same,Calcium,15 mg/kg single i.v.,2.48 ± 0 mM
same,Chloride,15 mg/kg single i.v.,102.5 ± 0 mM
same,Cholesterol,15 mg/kg single i.v.,1.59 ± 0 mM
same,Creatinine,15 mg/kg single i.v.,27 ± 0 µM
same,Globulin,15 mg/kg single i.v.,28.8 ± 0 g/L
same,Glucose,15 mg/kg single i.v.,7.31 ± 0 mM
same,HCT,15 mg/kg single i.v.,0.45 ± 0.00 L/L
same,HGB,15 mg/kg single i.v.,136.0 ± 0.0 g/L
same,MCH,15 mg/kg single i.v.,18.70 ± 0.00 pg
same,MCHC,15 mg/kg single i.v.,306.0 ± 0.0 g/L
same,MCV,15 mg/kg single i.v.,60.90 ± 0.0 fL
same,PLT,15 mg/kg single i.v.,970.0 ± 0.0 10^9/L
same,PT,15 mg/kg single i.v.,19.9 ± 0.0 s
same,Phosphate,15 mg/kg single i.v.,1.53 ± 0 mM
same,Potassium,15 mg/kg single i.v.,4.53 ± 0 mM
same,Protein (Total),15 mg/kg single i.v.,66.5 ± 0 g/L
same,RBC,15 mg/kg single i.v.,7.31 ± 0.00 10^12/L
same,Retc.,15 mg/kg single i.v.,4.52 ± 0.00%
same,Sodium,15 mg/kg single i.v.,140 ± 0 mM
same,Triglycerides,15 mg/kg single i.v.,0.76 ± 0 mM
same,Urea,15 mg/kg single i.v.,6.91 ± 0 mM
same,WBC,15 mg/kg single i.v.,10.28 ± 0.00 10^9/L
same,Body weight loss >10% (termination required) (incidence),20 mg/kg single i.v.,0/3
same,Mild fur loss around both eyes from Study Day 10 to 15 (incidence),20 mg/kg single i.v.,1/3
same,Mild impairment of gait and lack of response to stimuli up to 10 minutes post-dose (incidence),20 mg/kg single i.v.,1/3
same,No remarkable observations (incidence),20 mg/kg single i.v.,2/3
same,Lung - focal red areas medial right lobe (2 mm diameter) (incidence at necropsy),20 mg/kg single i.v.,1/3
same,Lung - haemorrhagic area right caudal lobe (1mm diameter) (incidence at necropsy),20 mg/kg single i.v.,1/3
same,Multifocal red petechiae on all lung lobes (incidence at necropsy),20 mg/kg single i.v.,0/3
same,Pale yellow liver (minimal) (incidence at necropsy),20 mg/kg single i.v.,0/3
same,ALP,20 mg/kg single i.v.,171 ± 38 U/L
same,ALT,20 mg/kg single i.v.,70 ± 9 U/L
same,APTT,20 mg/kg single i.v.,17.3 ± 1.0 s
same,AST,20 mg/kg single i.v.,93 ± 14 U/L
same,Albumin,20 mg/kg single i.v.,36.5 ± 1.1 g/L
same,Albumin/Globulin,20 mg/kg single i.v.,1.3 ± 0.1 Ratio
same,Bilirubin (Total),20 mg/kg single i.v.,1.2 ± 0.3 µM
same,Calcium,20 mg/kg single i.v.,2.71 ± 0.12 mM
same,Chloride,20 mg/kg single i.v.,100.5 ± 0.7 mM
same,Cholesterol,20 mg/kg single i.v.,2.16 ± 0.31 mM
same,Creatinine,20 mg/kg single i.v.,38 ± 5 µM
same,Globulin,20 mg/kg single i.v.,27.9 ± 1.2 g/L
same,Glucose,20 mg/kg single i.v.,7.29 ± 0.68 mM
same,HCT,20 mg/kg single i.v.,0.46 ± 0.01 L/L
same,HGB,20 mg/kg single i.v.,134.3 ± 3.2 g/L
same,MCH,20 mg/kg single i.v.,18.53 ± 0.84 pg
same,MCHC,20 mg/kg single i.v.,290.7 ± 1.5 g/L
same,MCV,20 mg/kg single i.v.,63.7 ± 2.5 fL
same,PLT,20 mg/kg single i.v.,957.0 ± 63.5 10^9/L
